Drawing on ChEMBL document CHEMBL1135266, “Covalent analogues of DNA base-pairs and triplets. Part 2: synthesis and cytostatic activity of bis(purin-6-yl)acetylenes,-diacetylenes and related compounds” (Bioorg Med Chem Lett, 2002), this text covers IC50 for ten compounds.

Assay [1] deals with L929. The experiment in a line: Tested in vitro for the inhibition of cell growth of murine L929 cells (ATCC CCL 1). The settings on record: Mus musculus. In kind it is functional, cell-based.
The subject of assay [2] is L1210. The experiment in a line: Tested in vitro for the inhibition of cell growth of mouse leukemia L1210 cell (ATCC CCL 219). In kind it is functional, cell-based.
Assay [3] concerns CCRF-CEM. Nature of the assay: Tested in vitro for the inhibition of cell growth of human T lymphoblastoid CCRF-CEM cell line (ATCC CCL 119). In kind it is functional, cell-based.
Assay [4] concerns HeLa. Nature of the assay: Tested in vitro for the inhibition of cell growth of human cervix carcinoma HeLa S3 cell (ATCC CCL 2.2); na = not active (inhibition of cell growth at 10 uM was lower than 20%). In kind it is functional, cell-based.
Assay [5] concerns L929. The experiment in a line: Tested in vitro for the inhibition of cell growth of murine L929 cells (ATCC CCL 1); na = not active (inhibition of cell growth at 10 uM was lower than 20%). In kind it is functional, cell-based, Mus musculus.
Assay [6] has as its system CCRF-CEM. Nature of the assay: Tested in vitro for the inhibition of cell growth of human T lymphoblastoid CCRF-CEM cell line (ATCC CCL 119); na = not active (inhibition of cell growth at 10 uM was lower than 20%). The class given is functional, cell-based.
The subject of assay [7] is L1210. Nature of the assay: Tested in vitro for the inhibition of cell growth of mouse leukemia L1210 cell (ATCC CCL 219); na = not active (inhibition of cell growth at 10 uM was lower than 20%). In kind it is functional, cell-based.
For assay [8], the system named is HeLa. Nature of the assay: Tested in vitro for the inhibition of cell growth of human cervix carcinoma HeLa S3 cell (ATCC CCL 2.2). In kind it is functional, cell-based.

The IC50 is the concentration that inhibits the measured activity by half. As for `C(C#Cc1ncnc2c1ncn2Cc1ccccc1)#Cc1ncnc2c1ncn2Cc1ccccc1`, the IC50 in the assay with L929 [1] is 6.3 µM; in the assay with L1210 [2], 0.37 µM; in the assay with CCRF-CEM [3] it was 0.43 µM; in the assay with HeLa [4], “Not Active”.
As for `C(=Cc1ncnc2c1ncn2Cc1ccccc1)c1ncnc2c1ncn2Cc1ccccc1`, the IC50 entry with L929 [5], in the assay on CCRF-CEM [6], with L1210 [7] and in the assay on HeLa [4] was “Not Active” throughout.
With `C(C#Cc1ncnc2c1ncn2C1CCCCO1)#Cc1ncnc2c1ncn2C1CCCCO1` (stereo not given), the half-inhibitory concentration (IC50) was found to be 1 µM in the assay on L929 [1], 0.7 µM in the assay on L1210 [2], 13.3 µM in the assay on HeLa [8] and 0.58 µM in the assay on CCRF-CEM [3].
Regarding `CCCCCn1cnc2c(C#Cc3ncnc4c3ncn4CCCCC)ncnc21`, the half-maximal inhibitory concentration (IC50) is 3 µM in the assay on L929 [1], 1.5 µM in the assay on L1210 [2], 15 µM with HeLa [8] and 0.36 µM in the assay on CCRF-CEM [3].
For the compound `C(#Cc1ncnc2c1ncn2Cc1ccccc1)c1ncnc2c1ncn2Cc1ccccc1`, the half-inhibitory concentration (IC50) was 5.3 µM with L929 [1], 1.8 µM in the assay with L1210 [2], 0.9 µM in the assay on CCRF-CEM [3] and “Not Active” in the assay with HeLa [4].
Turning to `C(#Cc1ncnc2c1ncn2C1CCCCO1)c1ncnc2c1ncn2Cc1ccccc1` (stereo not given), the IC50 in the assay with L929 [1] was found to be 1.9 µM; with L1210 [2] it was 0.9 µM; in the assay with HeLa [8] it was 6 µM; in the assay on CCRF-CEM [3], 0.32 µM.
Consider `c1ccc(Cn2cnc3c(CCc4ncnc5c4ncn5Cc4ccccc4)ncnc32)cc1`, for which the IC50 result in the assay with L929 [5], in the assay with CCRF-CEM [6], in the assay with L1210 [7] and with HeLa [4] was “Not Active” each time.
Consider `C(=C\c1ncnc2c1ncn2Cc1ccccc1)/c1ncnc2c1ncn2Cc1ccccc1`, for which the half-maximal inhibitory concentration (IC50) entry in the assay on L929 [5], in the assay with CCRF-CEM [6], in the assay on L1210 [7] and in the assay with HeLa [4] was “Not Active” throughout.
Turning to `CCCCCn1cnc2c(C#CC#Cc3ncnc4c3ncn4CCCCC)ncnc21`, the IC50 with L929 [1] came to 1.3 µM; with L1210 [2] it was 0.5 µM; in the assay with HeLa [8], 15 µM; in the assay on CCRF-CEM [3] it was 0.37 µM.
Turning to `O=c1[nH]c(=O)n([C@H]2C[C@H](O)[C@@H](CO)O2)cc1F` [FLOXURIDINE], the IC50 in the assay with L929 [1] is over 25 µM; in the assay on L1210 [2], under 0.02 µM; in the assay on HeLa [8], over 25 µM; in the assay with CCRF-CEM [3], 0.5 µM.
